According to patent publication US8791110B2 (priority 2006, dated 2014):
pEC50: −log10 of the molar value. Read-outs that look alike come from different tables or passages of the source. Numbered stars: 1 amine (or outer) side, 2 acyl side, 3 side chain; on linkers, the order of the positions; unused ones are H or OH. Bridge positions count the residues as written; N and C are the ends. Square brackets hold non-standard residues; d marks the D form. Peptide text beside a SMILES is read from it. I, II: the chains in the order shown. Actinocin(9to1) = Cc1c2oc3c(C)ccc(C(=O)[*:1])c3nc-2c(C(=O)[*:2])c(N)c1=O; NMeV = CN[C@H](C(=O)O)C(C)C; Sar = CNCC(=O)O

Columns and labels:
[1] = tested on: Tacaribe (TRVL 11573) virus; test: microbe, parasite or virus in culture; format: cell-based; details: Mammarenavirus tacaribeense, Vero
Candid 1 = test: organism not typed; format: cell-based, Junín virus; details: read-out: EC50 Candid 1
in vitro = details: African green monkey
Machupo virus = test: microbe, parasite or virus in culture; format: cell-based; details: Mammarenavirus machupoense, Vero, 120 h, read-out: EC50 Category A NWA, Machupo
Guanarito virus = test: microbe, parasite or virus in culture; format: cell-based; details: Mammarenavirus guanaritoense, Vero, 120 h, read-out: EC50 Category A NWA, Guanarito
Arenavirus = details: cited from earlier work
[2] = in vivo; cited from earlier work
[3] = in vivo; cited from earlier work; remark: listed apart in the source

`CN1CCN(C(=O)Nc2ccc(Cl)c(Cl)c2)CC1` [Compound 20013] showed a pEC50 ([1]; 168 h, read-out: EC50 Tacaribe) of less than 4.30, a pEC50 (Candid 1) of less than 4.30 and a CC50 (Vero cells; African green monkey) greater than 50 µM. It also gave a CC50 (in vitro) greater than 50 µM.
With `CN1CCN(C(=S)Nc2ccc(Cl)c(Cl)c2)CC1` [Compound 313761, 4-methyl-piperazine-1-carbothioic acid (3,4-dichlorophenyl)-amide] the pEC50 ([1]; 168 h, read-out: EC50 Tacaribe) was 6.85, the pEC50 ([1]; read-out: EC50 value in the CPE assay) was 6.85 and the pEC50 (Candid 1) was 6.59. For the same molecule, the pEC50 (Machupo virus) was 6.52, the pEC50 (Guanarito virus) was 6.82 and the “toxicity / effect on cell growth at antiviral concentrations” value (Vero cells) was “active at non-toxic concentrations”. It also gave a CC50 (in vitro) of 50 µM.
In the case of `Cc1c2oc3c(C)ccc(C(=O)N[C@@H]4C(=O)N[C@H](C(C)C)C(=O)N5CCC[C@H]5C(=O)N(C)CC(=O)N(C)[C@@H](C(C)C)C(=O)O[C@@H]4C)c3nc-2c(C(=O)N[C@@H]2C(=O)N[C@H](C(C)C)C(=O)N3CCC[C@H]3C(=O)N(C)CC(=O)N(C)[C@@H](C(C)C)C(=O)O[C@@H]2C)c(N)c1=O` [actinomycin D] (I: T[dV]P[Sar][NMeV] / II: T[dV]P[Sar][NMeV]; ester I:1-I:C, II:1-II:C; linker I:N-II:N via Actinocin(9to1)), the anti-Arenavirus activity (Arenavirus) is listed as “generally weak and non-specific”.
In the case of `NC12CC3CC(CC(C3)C1)C2` [amantadine], the anti-Arenavirus activity (Arenavirus) is listed as “generally weak and non-specific”.
In the case of `CN(C)CCCN1c2ccccc2Sc2ccc(Cl)cc21` [chlorpromazine], the anti-Arenavirus activity (Arenavirus) is given as “generally weak and non-specific”.
In the case of `NC(=O)c1ncn([C@@H]2O[C@H](CO)[C@@H](O)[C@H]2O)n1` [ribavirin, Ribavirin], the adverse effects [2] is given as “dose-related, reversible hemolytic anemia” and the reproductive toxicity [3] is given as “teratogenicity and embryo lethality”.
In the case of `CN1CCN(CCCN2c3ccccc3Sc3ccc(C(F)(F)F)cc32)CC1` [trifluoroperazine], the anti-Arenavirus activity (Arenavirus) is listed as “generally weak and non-specific”.
